From paper PMC8496750, “Identification of the organic anion transporting polypeptides responsible for the hepatic uptake of the major metabolite of epyrifenacil, S‐3100‐CA, in mice” (Pharmacology Research & Perspectives, 2021)

Experiments:
[1] = target: T1, human OATP2B1 (Homo sapiens, UniProt O94956); assay: Uptake assay for radiolabeled substrates, human OATP2B1 expressing 293FT cells; format: in vitro ADME; settings: 10‐min incubation
T1 construct: expressed in transfected cells; host or cells: 293FT cells
T1 sequence (O94956 1-709): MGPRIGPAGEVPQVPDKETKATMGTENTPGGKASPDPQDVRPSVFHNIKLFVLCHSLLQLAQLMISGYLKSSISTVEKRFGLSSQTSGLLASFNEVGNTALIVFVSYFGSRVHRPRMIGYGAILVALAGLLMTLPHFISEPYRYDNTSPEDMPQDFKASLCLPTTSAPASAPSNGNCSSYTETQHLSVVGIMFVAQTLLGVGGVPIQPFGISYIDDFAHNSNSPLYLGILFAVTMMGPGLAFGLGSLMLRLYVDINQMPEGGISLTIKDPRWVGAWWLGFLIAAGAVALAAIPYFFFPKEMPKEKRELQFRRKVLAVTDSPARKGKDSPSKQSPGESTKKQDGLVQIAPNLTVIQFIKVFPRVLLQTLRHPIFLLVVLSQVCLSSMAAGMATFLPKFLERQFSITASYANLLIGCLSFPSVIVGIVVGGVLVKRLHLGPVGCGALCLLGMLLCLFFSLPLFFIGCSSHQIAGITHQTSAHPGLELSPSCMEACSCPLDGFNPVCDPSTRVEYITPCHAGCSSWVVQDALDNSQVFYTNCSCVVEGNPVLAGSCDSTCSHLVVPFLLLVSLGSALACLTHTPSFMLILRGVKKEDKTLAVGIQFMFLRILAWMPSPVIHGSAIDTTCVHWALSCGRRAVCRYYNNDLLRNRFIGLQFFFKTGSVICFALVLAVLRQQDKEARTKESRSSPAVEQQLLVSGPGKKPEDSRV
Protocol: (§1) 293FT cells were purchased from Thermo Fisher Scientific, Inc.. The cells were grown in Dulbecco's modified Eagle medium (supplemented with 4.5 g/L glucose and 2 mM L‐glutamine) at 37°C, 5% CO2, and 95% humidity. The cells were passaged 3 times per week by harvesting cells using trypsin and plating at a density of 1.0 × 10^4 cells/cm^2 in a 10 cm cell culture plate for maintenance culture. The 293FT cells were detached using trypsin and re‐seeded at a density of 2.5 × 10^4 cells/cm^2 in BioCoat™ Collagen I 6‐well plates (Corning Inc.) for transfection and then treated with 1.2 μg of plasmid vector and 3.2 μl of Lipofectamine™ 2000 Transfection Reagent (Thermo Fisher Scientific, Inc.) according to the manufacturer's instructions. After a 3‐h treatment, the transfection medium was replaced with a fresh cell culture medium and incubated at 37°C with 95% humidity and 5% CO2 until ready for the assay.
(§2) Transport experiments were conducted approximately 24 h post‐transfection. The experiments were initiated by aspirating culture medium and addition of pre‐warmed radiolabeled substrate solution (final 1.0% of acetonitrile or 0.9% of ethanol in phosphate‐buffered saline (PBS[−])) to each well. After a 10‐min incubation, cells were washed twice with 1 ml of ice‐cold PBS(−) and lysed with 700 μl of 1.0 M NaOH for 3 h or more at room temperature. The lysate was transferred to a 1.5‐ml tube, and neutralized with 350 μl of 2.0 M HCl and 350 μl of 2.0% sodium dodecyl sulfate (SDS) solution. From the lysate, 1.0 ml was transferred to a vial containing 10 ml of Emulsifier Scintillator Plus to measure the radioactivity in the LSC. The protein concentration of the cell lysate was also measured using a Pierce™ BCA Protein Assay Kit (Thermo Fisher Scientific, Inc.), which was used to normalize, according to the cell number, the radioactivity in the cell lysate extract. The protein assay was performed in duplicate. Each sample type was assayed in triplicate wells, and each run was performed twice. When the difference in mean uptake between OATP expressing cells and mock cells was more than 2 times, the OATP was judged to be involved in transportation of the substrate. […] Each sample type was assayed in triplicate wells.

[2] = target: T2, mouse Oatp1a4 (Mus musculus, UniProt Q9EP96); assay: Uptake assay for radiolabeled substrates, mouse Oatp1a4 expressing 293FT cells; settings: 10‐min incubation
T2 sequence (Q9EP96 1-670): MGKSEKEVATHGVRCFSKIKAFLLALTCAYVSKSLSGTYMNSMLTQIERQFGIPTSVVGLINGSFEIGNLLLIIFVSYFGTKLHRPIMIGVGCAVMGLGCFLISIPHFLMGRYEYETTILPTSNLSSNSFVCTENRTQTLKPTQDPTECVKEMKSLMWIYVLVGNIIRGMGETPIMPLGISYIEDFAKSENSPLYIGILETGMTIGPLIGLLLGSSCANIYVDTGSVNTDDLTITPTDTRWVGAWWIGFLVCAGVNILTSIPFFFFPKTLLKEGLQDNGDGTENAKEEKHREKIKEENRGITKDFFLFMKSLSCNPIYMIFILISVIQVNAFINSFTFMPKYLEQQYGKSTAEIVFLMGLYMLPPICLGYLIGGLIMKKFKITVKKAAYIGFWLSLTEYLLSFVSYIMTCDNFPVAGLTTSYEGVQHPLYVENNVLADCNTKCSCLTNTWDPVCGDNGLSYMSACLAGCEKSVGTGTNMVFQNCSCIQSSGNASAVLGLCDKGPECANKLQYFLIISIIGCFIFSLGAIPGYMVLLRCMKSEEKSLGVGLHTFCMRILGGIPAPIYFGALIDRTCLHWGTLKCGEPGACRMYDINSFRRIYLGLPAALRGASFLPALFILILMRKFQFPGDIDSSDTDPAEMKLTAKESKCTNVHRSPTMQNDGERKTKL
Protocol: as §1, §2

[3] = target: T3, rat Oatp1a1 (Rattus norvegicus, UniProt P46720); assay: Uptake assay for radiolabeled substrates, rat Oatp1a1 expressing 293FT cells; format: in vitro ADME; settings: for Ratio of uptake amount relative to the uptake into mock cells: 10‐min incubation
T3 construct: expressed in transfected cells; host or cells: 293FT cells
T3 sequence (P46720 1-670): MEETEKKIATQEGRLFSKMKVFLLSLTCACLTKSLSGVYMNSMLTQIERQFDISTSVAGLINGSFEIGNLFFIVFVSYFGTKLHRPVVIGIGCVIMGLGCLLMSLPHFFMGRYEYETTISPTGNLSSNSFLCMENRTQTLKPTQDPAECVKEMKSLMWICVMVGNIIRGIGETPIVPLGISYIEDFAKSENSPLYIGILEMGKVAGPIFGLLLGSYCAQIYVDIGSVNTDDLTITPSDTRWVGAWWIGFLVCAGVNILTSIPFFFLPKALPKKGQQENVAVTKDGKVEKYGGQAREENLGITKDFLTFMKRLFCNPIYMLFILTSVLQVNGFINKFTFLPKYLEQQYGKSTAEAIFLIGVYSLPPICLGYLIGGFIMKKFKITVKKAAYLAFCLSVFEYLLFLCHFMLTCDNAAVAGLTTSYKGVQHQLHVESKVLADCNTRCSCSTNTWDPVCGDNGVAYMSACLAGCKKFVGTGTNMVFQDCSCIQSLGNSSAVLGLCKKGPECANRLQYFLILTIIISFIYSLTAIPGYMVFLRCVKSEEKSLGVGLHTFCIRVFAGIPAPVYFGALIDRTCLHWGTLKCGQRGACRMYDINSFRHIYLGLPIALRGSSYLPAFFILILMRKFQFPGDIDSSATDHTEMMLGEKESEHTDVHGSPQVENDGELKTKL
Protocol: as §1, §2

C[C@]12CC[C@@H]3c4ccc(OS(=O)(=O)O)cc4CC[C@H]3[C@@H]1CCC2=O [E3S, Estrone 3‐sulfate]
Ratio of uptake amount relative to the uptake into mock cells ([1]; Run_1): 16.2
Ratio of uptake amount relative to the uptake into mock cells ([1]; Run_2): 1.9
Ratio of uptake amount relative to the uptake into mock cells ([2]; Run_1): 1.1
Ratio of uptake amount relative to the uptake into mock cells ([2]; Run_2): 1.1
Ratio of uptake amount relative to the uptake into mock cells ([3]; Run_1): 28.6
Ratio of uptake amount relative to the uptake into mock cells ([3]; Run_2): 13.6

C[C@]12CC[C@@H]3c4ccc(O)cc4CC[C@H]3[C@@H]1CC[C@@H]2O[C@@H]1O[C@H](C(=O)O)[C@@H](O)[C@H](O)[C@H]1O [E217βG, Estradiol 17β‐D‐glucuronide]
Ratio of uptake amount relative to the uptake into mock cells ([1]; Run_1): 1.9
Ratio of uptake amount relative to the uptake into mock cells ([1]; Run_2): 0.6
Ratio of uptake amount relative to the uptake into mock cells ([2]; Run_1): 3.7
Ratio of uptake amount relative to the uptake into mock cells ([2]; Run_2): 3.3
Uptake, times higher than in mock cells [3]: > 50 times
Ratio of uptake amount relative to the uptake into mock cells ([3]; Run_1): 59.1
Ratio of uptake amount relative to the uptake into mock cells ([3]; Run_2): 65.4

Cn1c(C(F)(F)F)cc(=O)n(-c2cc(Oc3cccnc3OCC(=O)O)c(Cl)cc2F)c1=O [S‐3100‐CA]
Ratio of uptake amount relative to the uptake into mock cells ([1]; Run_1): 2.6
Ratio of uptake amount relative to the uptake into mock cells ([1]; Run_2): 1.9
Ratio of uptake amount relative to the uptake into mock cells ([2]; Run_1): 8.1
Ratio of uptake amount relative to the uptake into mock cells ([2]; Run_2): 4.2
Ratio of uptake amount relative to the uptake into mock cells ([3]; Run_1): 11.7
Ratio of uptake amount relative to the uptake into mock cells ([3]; Run_2): 8.7
